The target in this assay is T1, Alkanal monooxygenase alpha chain (Vibrio harveyi, UniProt P07740).
T1 sequence (P07740 whole entry): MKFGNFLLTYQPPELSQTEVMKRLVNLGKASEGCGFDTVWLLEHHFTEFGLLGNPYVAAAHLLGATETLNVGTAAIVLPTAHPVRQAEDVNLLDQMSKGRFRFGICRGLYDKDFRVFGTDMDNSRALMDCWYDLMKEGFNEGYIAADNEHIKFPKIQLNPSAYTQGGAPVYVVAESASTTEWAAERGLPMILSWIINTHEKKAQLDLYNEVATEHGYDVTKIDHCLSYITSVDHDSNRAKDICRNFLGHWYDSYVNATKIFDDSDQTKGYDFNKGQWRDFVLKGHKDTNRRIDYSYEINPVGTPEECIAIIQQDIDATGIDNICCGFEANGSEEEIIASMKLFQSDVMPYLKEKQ
The assay can be described thus: Vibrio harveyi growth inhibition, dose response, counter-screen for quorum sensing inhibitor project, absorbance (AID 434943). On the technique in general: A counterscreen serves to expose hits that act by an unwanted route or on another target.
Broadly, the EC50 is the concentration at which the effect is half-maximal. Read a high EC50 as weaker potency. Turning to `C=Cn1c(C(=O)O)ccc1-c1ccc(CC)cc1`, the EC50 was over 160 µM.

For `COc1cc(NC(=O)CN2C(=O)NC(c3ccccc3)(c3ccccc3)C2=O)cc(OC)c1` [MLS001176525], the EC50 is over 160 µM.

`CCc1ccc(S(=O)(=O)Nc2ccc(Br)cn2)cc1` [MLS001211346] came in with an EC50 of over 160 µM.

With `CCCc1ccc(S(=O)(=O)N(C)S(=O)(=O)c2ccc(F)cc2)cc1` [N-(4-fluorophenyl)sulfonyl-N-methyl-4-propylbenzenesulfonamide], the EC50 is over 160 µM.

Molecule `CN(C)S(=O)(=O)c1ccc(NC(=S)NC(=O)Cc2ccccc2)cc1` [N-[[4-(dimethylsulfamoyl)phenyl]carbamothioyl]-2-phenyl-ethanamide] showed an EC50 of over 160 µM.

`Cc1cccc(NS(=O)(=O)c2ccc(Oc3ccccc3)cc2)n1` [SMR000071466] yielded an EC50 of over 160 µM.

Turning to `Cn1cnc(S(=O)(=O)Nc2ccc(OC(F)(F)F)cc2)c1` [SMR000314513], the EC50 was over 160 µM.
